From paper PMC11840788, “3,3′-Diindolylmethane (DIM): A Molecular Scaffold for Inhibition of WWP1 and WWP2, Members of the NEDD4 Family HECT E3 Ligases” (ACS Omega, 2025)

What was measured:
[1] = molecular target: T1, WWP2 (Homo sapiens, UniProt O00308); assay: STD NMR binding, WWP2; details: 500 μM ligand, 20 μM protein
T1 construct: made in house; host or cells: E. coli
Description: Given the similarities between WWP1 and WWP2 HECT domains, we speculated that the relatively low sensitivity of DSF may not be able to detect weak WWP2-I3C interactions and therefore opted to investigate further using STD NMR. STD NMR is a versatile ligand-based NMR approach, relying on selective saturation of the protein. This saturation is transferred to the ligand when and if the ligand binds, causing a reduction of the signal intensities. The STD intensities are calculated as the difference of the reference spectra (where selective saturation is off) minus the irradiated spectra, and they are proportional to the vicinity of the protein surface. […]
An Amicon centrifuge filter unit with a 10 kDa MW cutoff was used to exchange the protein in 25 mM d19-2,2-bis(hydroxymethyl)-2,2′,2″-nitrilotriethanol, 100 mM NaCl and 1.0 mM DTT buffer pH* 8.9 (uncorrected for the deuterium isotope effect on the pH glass electrode) in D2O. […] All the NMR experiments were performed on a Bruker Avance 800.23 MHz at 278 K. Binding epitope mappings were obtained by determining the initial slopes (STD0) calculated by performing a least-squares fitting of the following monoexponential curve: [drawing 1] where STD(tsat) is the STD intensity for a saturation time, tsat, STDmax is the maximum STD intensity and ksat is the rate constant for saturation transfer. […]

[2] = system: NEDD4-1; parameters: method as in PMID 27979631; details: cited from earlier work
[3] = system: WWP1 HECT domain; parameters: method as in doi:10.1016/j.phytol.2023.01.002; details: thermal shift analysis; cited from earlier work

T1 sequence (O00308 whole entry): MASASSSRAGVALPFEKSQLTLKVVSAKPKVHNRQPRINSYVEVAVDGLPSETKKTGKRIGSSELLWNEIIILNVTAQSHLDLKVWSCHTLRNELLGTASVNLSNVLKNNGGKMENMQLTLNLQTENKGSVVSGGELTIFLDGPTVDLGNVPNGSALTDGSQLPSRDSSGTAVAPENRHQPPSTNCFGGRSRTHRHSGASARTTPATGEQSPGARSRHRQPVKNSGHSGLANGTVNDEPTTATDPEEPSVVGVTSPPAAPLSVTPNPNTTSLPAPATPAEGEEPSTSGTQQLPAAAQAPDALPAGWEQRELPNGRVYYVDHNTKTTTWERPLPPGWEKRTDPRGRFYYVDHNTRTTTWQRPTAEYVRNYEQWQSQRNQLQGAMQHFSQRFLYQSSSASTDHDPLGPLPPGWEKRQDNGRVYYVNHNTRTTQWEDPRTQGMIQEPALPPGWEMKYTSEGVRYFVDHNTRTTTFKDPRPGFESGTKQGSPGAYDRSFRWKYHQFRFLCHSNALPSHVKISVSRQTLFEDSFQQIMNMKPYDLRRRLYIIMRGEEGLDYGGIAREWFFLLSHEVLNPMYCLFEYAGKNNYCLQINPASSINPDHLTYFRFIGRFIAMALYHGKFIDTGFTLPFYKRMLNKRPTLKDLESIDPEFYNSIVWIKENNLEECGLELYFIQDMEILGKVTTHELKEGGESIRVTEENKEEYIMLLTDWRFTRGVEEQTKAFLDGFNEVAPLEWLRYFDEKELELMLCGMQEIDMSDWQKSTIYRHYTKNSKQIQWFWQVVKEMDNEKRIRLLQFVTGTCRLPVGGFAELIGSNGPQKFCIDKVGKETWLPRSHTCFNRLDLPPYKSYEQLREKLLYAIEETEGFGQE

STD intensities, WWP2-I3C complex (in words, compared with WWP1) [1]: much lower
SMILES: OCc1c[nH]c2ccccc12 [Compound I3C, Indole-3-carbinol, reference compound]
IC50 [2]: 284 µM | shift in Tm [3]: 3.8 °C
